Organism: Rattus norvegicus
Assay: Open TG-GATES - Regimen: Single
Assay type: toxicity, organism-based, Sprague-Dawley
Design: regimen Single, gender Male, age 6 weeks
Settings: in vivo, po, route gavage; for TP / gamma-GTP / A/G / ALP / ALT / AST / BUN / CRE / Ca / Cl / DBIL / GLC / IP / K / LDH / Na / PL / RALB / TBIL / TC / TG: tissue Plasma; for APTT / Bas / Eos / Fbg / Hb / Ht / Lym / MCH / MCHC / MCV / Mono / Neu / PT / Plat / RBC / Ret / WBC: tissue Blood; for KIDNEY_L / KIDNEY_R / KIDNEY_TOTAL: tissue Kidney; for LIVER: tissue Liver
[1] = 2 mg/kg, 3 h, dose level Middle
[2] = 2 mg/kg, 6 h, dose level Middle
[3] = 2 mg/kg, 9 h, dose level Middle

Question: What does the source list for COc1ccc2c(c1)c(CC(=O)O)c(C)n2C(=O)c1ccc(Cl)cc1 [INDOMETHACIN]?
Answer: TP (1 mg/kg, 9 h, dose level Low): 5.3 g/dL; gamma-GTP (1 mg/kg, 9 h, dose level Low): 1.4 IU/L; TERMINAL_BW (1 mg/kg, 24 h, dose level Low): 215.2 g; APTT (1 mg/kg, 24 h, dose level Low): 16.8 s; Bas (1 mg/kg, 24 h, dose level Low): 0%; Eos (1 mg/kg, 24 h, dose level Low): 0.8%; Fbg (1 mg/kg, 24 h, dose level Low): 198.2 mg/dL; Hb (1 mg/kg, 24 h, dose level Low): 13.5 g/dL; Ht (1 mg/kg, 24 h, dose level Low): 40.7%; Lym (1 mg/kg, 24 h, dose level Low): 79%; MCH (1 mg/kg, 24 h, dose level Low): 21.8 pg; MCHC (1 mg/kg, 24 h, dose level Low): 33.2%; MCV (1 mg/kg, 24 h, dose level Low): 65.6 fL; Mono (1 mg/kg, 24 h, dose level Low): 8.8%; Neu (1 mg/kg, 24 h, dose level Low): 11.4%; PT (1 mg/kg, 24 h, dose level Low): 12.3 s; Plat (1 mg/kg, 24 h, dose level Low): 112.3 x10_4/uL; RBC (1 mg/kg, 24 h, dose level Low): 620.8 x10_4/ul; Ret (1 mg/kg, 24 h, dose level Low): 9%; WBC (1 mg/kg, 24 h, dose level Low): 118.2 x10_2/uL; KIDNEY_L (1 mg/kg, 24 h, dose level Low): 1 g; KIDNEY_R (1 mg/kg, 24 h, dose level Low): 1 g; KIDNEY_TOTAL (1 mg/kg, 24 h, dose level Low): 1.9 g; LIVER (1 mg/kg, 24 h, dose level Low): 10.2 g; A/G (1 mg/kg, 24 h, dose level Low): 2.2; ALP (1 mg/kg, 24 h, dose level Low): 1141.2 IU/L; ALT (1 mg/kg, 24 h, dose level Low): 41.2 IU/L; AST (1 mg/kg, 24 h, dose level Low): 71 IU/L; BUN (1 mg/kg, 24 h, dose level Low): 16.6 mg/dL; CRE (1 mg/kg, 24 h, dose level Low): 0.5 mg/dL; Ca (1 mg/kg, 24 h, dose level Low): 10.3 mg/dL; Cl (1 mg/kg, 24 h, dose level Low): 105.2 meq/L; DBIL (1 mg/kg, 24 h, dose level Low): 0.016 mg/dL; GLC (1 mg/kg, 24 h, dose level Low): 202.6 mg/dL; IP (1 mg/kg, 24 h, dose level Low): 8.6 mg/dL; K (1 mg/kg, 24 h, dose level Low): 5.1 meq/L; LDH (1 mg/kg, 24 h, dose level Low): 85 IU/L; Na (1 mg/kg, 24 h, dose level Low): 138.4 meq/L; PL (1 mg/kg, 24 h, dose level Low): 152.8 mg/dL; RALB (1 mg/kg, 24 h, dose level Low): 3.9 g/dL; TBIL (1 mg/kg, 24 h, dose level Low): 0.3 mg/dL; TC (1 mg/kg, 24 h, dose level Low): 88.4 mg/dL; TG (1 mg/kg, 24 h, dose level Low): 72 mg/dL; TP (1 mg/kg, 24 h, dose level Low): 5.7 g/dL; gamma-GTP (1 mg/kg, 24 h, dose level Low): 1 IU/L; TERMINAL_BW [1]: 195.5 g; APTT [1]: 17 s; Bas [1]: 0%; Eos [1]: 0.8%; Fbg [1]: 215 mg/dL; Hb [1]: 13.5 g/dL; Ht [1]: 40.3%; Lym [1]: 80.2%; MCH [1]: 22.2 pg; MCHC [1]: 33.5%; MCV [1]: 66.2 fL; Mono [1]: 8%; Neu [1]: 11.4%; PT [1]: 12.6 s; Plat [1]: 109.7 x10_4/uL; RBC [1]: 609.4 x10_4/ul; Ret [1]: 10.3%; WBC [1]: 99.3 x10_2/uL; KIDNEY_L [1]: 0.9 g; KIDNEY_R [1]: 0.9 g; KIDNEY_TOTAL [1]: 1.8 g; LIVER [1]: 8.7 g; A/G [1]: 1.6; ALP [1]: 1158.6 IU/L; ALT [1]: 39.8 IU/L; AST [1]: 74.4 IU/L; BUN [1]: 10.6 mg/dL; CRE [1]: 0.4 mg/dL; Ca [1]: 10.3 mg/dL; Cl [1]: 105.8 meq/L; DBIL [1]: 0.056 mg/dL; GLC [1]: 185.2 mg/dL; IP [1]: 10 mg/dL; K [1]: 4.8 meq/L; LDH [1]: 99.4 IU/L; Na [1]: 137.4 meq/L; PL [1]: 125 mg/dL; RALB [1]: 3.7 g/dL; TBIL [1]: 0.4 mg/dL; TC [1]: 72.2 mg/dL; TG [1]: 40 mg/dL; TP [1]: 6 g/dL; gamma-GTP [1]: 1.2 IU/L; TERMINAL_BW [2]: 199.6 g; APTT [2]: 17 s; Bas [2]: 0%; Eos [2]: 0.8%; Fbg [2]: 206.8 mg/dL; Hb [2]: 13.3 g/dL; Ht [2]: 40.2%; Lym [2]: 81.2%; MCH [2]: 21.6 pg; MCHC [2]: 33.2%; MCV [2]: 65.1 fL; Mono [2]: 6.4%; Neu [2]: 12%; PT [2]: 12.5 s; Plat [2]: 106.7 x10_4/uL; RBC [2]: 617.8 x10_4/ul; Ret [2]: 9.6%; WBC [2]: 84.6 x10_2/uL; KIDNEY_L [2]: 0.9 g; KIDNEY_R [2]: 0.9 g; KIDNEY_TOTAL [2]: 1.8 g; LIVER [2]: 8.6 g; A/G [2]: 1.8; ALP [2]: 959 IU/L; ALT [2]: 36.8 IU/L; AST [2]: 75 IU/L; BUN [2]: 10.6 mg/dL; CRE [2]: 0.5 mg/dL; Ca [2]: 10.1 mg/dL; Cl [2]: 107 meq/L; DBIL [2]: 0.036 mg/dL; GLC [2]: 188.4 mg/dL; IP [2]: 9.1 mg/dL; K [2]: 4.9 meq/L; LDH [2]: 91.4 IU/L; Na [2]: 137.4 meq/L; PL [2]: 120.8 mg/dL; RALB [2]: 3.8 g/dL; TBIL [2]: 0.3 mg/dL; TC [2]: 73.4 mg/dL; TG [2]: 38.6 mg/dL; TP [2]: 5.9 g/dL; gamma-GTP [2]: 2.2 IU/L; TERMINAL_BW [3]: 198.4 g; APTT [3]: 16.6 s; Bas [3]: 0%; Eos [3]: 0.6%; Fbg [3]: 210 mg/dL; Hb [3]: 13.1 g/dL; Ht [3]: 39.8%; Lym [3]: 79.6%; MCH [3]: 21.8 pg; MCHC [3]: 33%; MCV [3]: 66.1 fL; Mono [3]: 8.2%; Neu [3]: 11.8%; PT [3]: 12.4 s; Plat [3]: 108.3 x10_4/uL; RBC [3]: 602.2 x10_4/ul; Ret [3]: 9.7%
